Results on 2 compounds are retold here after paper PMC7217481, “Amino acids serve as an important energy source for adult flukes of Clonorchis sinensis” (PLoS Neglected Tropical Diseases, 2020).

For this experiment, the target named is T1, rCsFBPase (Clonorchis sinensis, UniProt G7YVB4).
T1 construct: gene CLF_111764; GenBank id is printed for the qPCR primers and is a genome scaffold
T1 sequence (G7YVB4 1-346): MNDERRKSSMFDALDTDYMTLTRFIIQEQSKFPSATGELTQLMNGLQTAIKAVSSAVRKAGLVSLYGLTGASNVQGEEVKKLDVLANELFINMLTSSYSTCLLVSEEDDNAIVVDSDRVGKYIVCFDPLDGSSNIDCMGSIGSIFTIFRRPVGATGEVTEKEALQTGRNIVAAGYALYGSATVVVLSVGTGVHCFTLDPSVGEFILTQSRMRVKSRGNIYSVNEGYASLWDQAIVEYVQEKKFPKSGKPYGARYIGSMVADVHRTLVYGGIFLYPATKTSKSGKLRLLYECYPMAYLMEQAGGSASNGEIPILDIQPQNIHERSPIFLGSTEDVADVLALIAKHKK
The experiment in a line: coupled G6PDH / phosphoglucose isomerase assay, NADP+ reduction at […] nm. The format is biochemical.

Compound `Nc1ncnc2c1ncn2[C@@H]1O[C@H](COP(=O)(O)O)[C@@H](O)[C@H]1O` [AMP] showed an IC50 of 262 µM.

Compound `CC(C)Cc1sc(N)nc1-c1ccc(P(=O)(O)O)o1` [MB05032, [5-[2-amino-5-(2-methylpropyl)-4-thiazolyl]-2-furanyl] phosphonic acid] gave an IC50 of 4.9 µM.

Broadly, the IC50 is the point on the concentration scale where inhibition reaches its midpoint. A high value points to a need for much substance.
